IC50 data for eleven compounds are collected here from patent publication US10023570B2 (Array BioPharma, Inc., priority 2015, dated 2018).

Counter-ions that a name gives are not always drawn. Like-named read-outs stand apart in the source and are kept apart here.

Experiment [1] deals with N-terminal GST tagged recombinant human RET cytoplasmic domain (aa 658-end), wild type RET kinase (Homo sapiens (Human), UniProt P07949). As to the kind of experiment: RET Enzyme Assay (HTRF KinEASE-TK), wild type RET. In kind it is biochemical. Background: TR-FRET usually uses a lanthanide donor and a delayed reading to cut background.
Experiment [2] concerns the target human KDR protein in HEK-293 cells (Homo sapiens (Human), UniProt P35968). As to the kind of experiment: KDR Cell Assay (phospho-KDR in HEK-293 cells expressing inducible KDR). In kind it is cell-based. The note with it: pKDR Cell HEK 10% FBS IC50, HEK-293 cells expressing inducible KDR, VEGF stimulated. In short, it runs like this: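 HEK-293 cells with inducible human KDR were treated with compound for 1 h in DMEM (0.25% DMSO final), then lysed. Phospho-KDR was quantified by Meso Scale immunoassay, expressed as percent of control, and IC50 taken where a 4-parameter logistic fit crossed 50 POC.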

The term IC50 denotes the point on the concentration scale where inhibition reaches its midpoint.

Chain of N-terminal GST tagged recombinant human RET cytoplasmic domain (aa 658-end), wild type RET kinase (P07949 658-1114): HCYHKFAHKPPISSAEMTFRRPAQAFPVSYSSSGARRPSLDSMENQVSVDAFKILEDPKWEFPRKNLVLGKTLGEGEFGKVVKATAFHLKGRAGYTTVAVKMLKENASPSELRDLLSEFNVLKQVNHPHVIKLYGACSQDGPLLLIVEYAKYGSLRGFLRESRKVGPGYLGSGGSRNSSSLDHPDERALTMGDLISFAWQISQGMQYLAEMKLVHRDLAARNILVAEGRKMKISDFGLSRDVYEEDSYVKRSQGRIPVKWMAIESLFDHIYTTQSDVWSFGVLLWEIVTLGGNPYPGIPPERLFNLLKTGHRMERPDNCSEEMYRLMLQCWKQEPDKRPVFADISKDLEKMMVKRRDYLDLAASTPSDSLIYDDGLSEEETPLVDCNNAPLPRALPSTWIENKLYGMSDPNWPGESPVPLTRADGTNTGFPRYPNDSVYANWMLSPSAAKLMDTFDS
Chain of human KDR protein in HEK-293 cells (P35968 20-1356): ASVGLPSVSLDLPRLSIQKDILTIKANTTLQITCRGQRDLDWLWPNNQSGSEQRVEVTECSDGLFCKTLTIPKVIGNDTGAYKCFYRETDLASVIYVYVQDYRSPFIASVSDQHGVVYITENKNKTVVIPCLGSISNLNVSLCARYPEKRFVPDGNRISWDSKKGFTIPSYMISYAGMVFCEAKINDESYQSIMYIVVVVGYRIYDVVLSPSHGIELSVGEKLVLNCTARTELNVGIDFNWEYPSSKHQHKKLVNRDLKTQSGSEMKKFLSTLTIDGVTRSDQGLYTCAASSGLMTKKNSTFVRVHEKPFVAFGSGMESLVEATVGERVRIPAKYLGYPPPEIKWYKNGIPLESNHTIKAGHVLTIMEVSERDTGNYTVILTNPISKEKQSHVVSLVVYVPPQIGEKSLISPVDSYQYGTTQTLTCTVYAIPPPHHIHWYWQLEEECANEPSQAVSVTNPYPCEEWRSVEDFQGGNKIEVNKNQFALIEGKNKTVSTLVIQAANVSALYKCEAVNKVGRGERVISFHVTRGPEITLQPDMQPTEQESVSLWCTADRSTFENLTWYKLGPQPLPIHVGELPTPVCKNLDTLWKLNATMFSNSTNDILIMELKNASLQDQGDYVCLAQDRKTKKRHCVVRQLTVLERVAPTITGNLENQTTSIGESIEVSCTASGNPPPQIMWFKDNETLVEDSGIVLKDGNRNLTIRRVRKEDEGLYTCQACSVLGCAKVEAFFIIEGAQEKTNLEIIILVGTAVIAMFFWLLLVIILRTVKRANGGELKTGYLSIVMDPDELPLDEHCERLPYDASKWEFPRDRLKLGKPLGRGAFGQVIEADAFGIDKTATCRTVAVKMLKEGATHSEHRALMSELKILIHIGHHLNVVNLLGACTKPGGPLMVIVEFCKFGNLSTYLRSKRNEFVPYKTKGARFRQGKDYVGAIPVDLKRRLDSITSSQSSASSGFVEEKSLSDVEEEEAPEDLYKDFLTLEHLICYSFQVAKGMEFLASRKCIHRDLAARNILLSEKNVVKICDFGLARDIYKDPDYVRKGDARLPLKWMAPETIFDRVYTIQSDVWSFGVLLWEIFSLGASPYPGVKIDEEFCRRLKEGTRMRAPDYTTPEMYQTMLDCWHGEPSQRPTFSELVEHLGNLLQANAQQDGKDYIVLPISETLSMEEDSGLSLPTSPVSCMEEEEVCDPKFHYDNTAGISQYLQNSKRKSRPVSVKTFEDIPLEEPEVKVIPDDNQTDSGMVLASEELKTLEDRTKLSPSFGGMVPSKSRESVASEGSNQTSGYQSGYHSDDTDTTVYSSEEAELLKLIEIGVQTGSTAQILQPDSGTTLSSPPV

With `CC(C)NC(=O)[C@@H]1CCCN(c2ccc(-c3cc(-c4cnn(C)c4)cn4ncc(C#N)c34)cn2)C1` [Example 229, (R)-1-(5-(3-cyano-6-(1-methyl-1H-pyrazol-4-yl)pyrazolo[1,5-a]pyridin-4-yl)pyridin-2-yl)-N-isopropylpiperidine-3-carboxamide], the IC50 in experiment [1] (wild type RET, 1 mM ATP) turned out to be 0.334 µM.

For `CC(C)NC(=O)[C@H]1CCCN(c2ccc(-c3cc(-c4cnn(C)c4)cn4ncc(C#N)c34)cn2)C1` [Example 230, (S)-1-(5-(3-cyano-6-(1-methyl-1H-pyrazol-4-yl)pyrazolo[1,5-a]pyridin-4-yl)pyridin-2-yl)-N-isopropylpiperidine-3-carboxamide], the concentration for half-maximal inhibition (IC50) in experiment [1] (wild type RET, 1 mM ATP) came out at 0.242 µM. The same measure, in the same setting: the value for `Cc1cc(-c2cc(-c3cnn(C)c3)cn3ncc(C#N)c23)cnc1N1CCN(C(=O)OC(C)(C)C)CC1` [Example 275, tert-Butyl 4-(5-(3-cyano-6-(1-methyl-1H-pyrazol-4-yl)pyrazolo[1,5-a]pyridin-4-yl)-3-methylpyridin-2-yl)piperazine-1-carboxylate] was 1.5 µM; that for `Cc1cc(-c2cc(-c3cnn(C)c3)cn3ncc(C#N)c23)cnc1N1CCNCC1` [Example 276, 6-(1-methyl-1H-pyrazol-4-yl)-4-(5-methyl-6-(piperazin-1-yl)pyridin-3-yl)pyrazolo[1,5-a]pyridine-3-carbonitrile dihydrochloride] was 0.395 µM; that for `Cc1cc(-c2cc(-c3cnn(C)c3)cn3ncc(C#N)c23)cnc1N1CCN(C(=O)CC(C)(C)O)CC1` [Example 277, 4-(6-(4-(3-hydroxy-3-methylbutanoyl)piperazin-1-yl)-5-methylpyridin-3-yl)-6-(1-methyl-1H-pyrazol-4-yl)pyrazolo[1,5-a]pyridine-3-carbonitrile] was 0.299 µM. The same measure, in the same setting: the value for `Cc1cc(-c2cc(-c3cnn(C)c3)cn3ncc(C#N)c23)cnc1N1CCN(C(=O)CC(C)(C)C)CC1` [Example 279, 4-(6-(4-(3,3-dimethylbutanoyl)piperazin-1-yl)-5-methylpyridin-3-yl)-6-(1-methyl-1H-pyrazol-4-yl)pyrazolo[1,5-a]pyridine-3-carbonitrile] was 0.318 µM. With `Cn1cc(-c2cc(-c3ccc(N4CCNCC4)nc3)c3ccnn3c2)cn1` [Example 312, 6-(1-methyl-1H-pyrazol-4-yl)-4-(6-(piperazin-1-yl)pyridin-3-yl)pyrazolo[1,5-a]pyridine dihydrochloride], in experiment [1], the IC50 is 0.607 µM. As to `Cn1cc(-c2cc(-c3ccc(N4CCN(C(=O)OC(C)(C)C)CC4)nc3)c3c(Br)cnn3c2)cn1` [Example 649, tert-butyl 4-(5-(3-bromo-6-(1-methyl-1H-pyrazol-4-yl)pyrazolo[1,5-a]pyridin-4-yl)pyridin-2-yl)piperazine-1-carboxylate], in experiment [1] (wild type RET, 1 mM ATP), the concentration for half-maximal inhibition (IC50) is 0.656 µM. Same read-out and setting: the value for `Cc1cnn2cc(-c3cnn(C)c3)cc(-c3ccc(N4CCN(C(=O)OC(C)(C)C)CC4)nc3)c12` [Example 650, tert-butyl 4-(5-(3-methyl-6-(1-methyl-1H-pyrazol-4-yl)pyrazolo[1,5-a]pyridin-4-yl)pyridin-2-yl)piperazine-1-carboxylate] was 0.345 µM. Still for that read-out and setting: the value for `Cc1cnn2cc(-c3cnn(C)c3)cc(-c3ccc(N4CCNCC4)nc3)c12` [Example 651, 3-methyl-6-(1-methyl-1H-pyrazol-4-yl)-4-(6-(piperazin-1-yl)pyridin-3-yl)pyrazolo[1,5-a]pyridine] was 0.208 µM. Compound `Cn1cc(-c2cc(-c3ccc(N4CC5CC(C4)N5Cc4ccccn4)nc3)c3c(C#N)cnn3c2)cn1` [Example 693, 6-(1-methyl-1H-pyrazol-4-yl)-4-(6-(6-(pyridin-2-ylmethyl)-3,6-diazabicyclo[3.1.1]heptan-3-yl)pyridin-3-yl)pyrazolo[1,5-a]pyridine-3-carbonitrile] came in with an IC50 in experiment [2] of 1.02 µM.
